Laboratory results published in the NIST ThermoML archive (doi:10.1016/j.jct.2013.04.021).
Numbers after ± are expanded uncertainties.

Test: xn = mol fraction of the nth substance listed
Details: 101 kPa, Liquid; for mass density: Vibrating tube method; for speed of sound: fixed-path interferometer; for viscosity: Capillary tube (Ostwald / Ubbelohde) method

CCCCOCCO [2-butoxyethan-1-ol] + CCCCCCCCO
Details	mass density, 293.15 K [kg/m3]	mass density, 298.15 K [kg/m3]	mass density, 303.15 K [kg/m3]	speed of sound, 293.15 K [m/s]	speed of sound, 298.15 K [m/s]	viscosity, 298.15 K [mPa·s]	viscosity, 303.15 K [mPa·s]
x1 = 0.053	828.488 ± 0.24	825.018 ± 0.24	821.521 ± 0.24	1361.8 ± 1.6	1344.8 ± 1.6	6.97 ± 0.15	5.789 ± 0.13
x1 = 0.1049	–	–	–	–	–	6.636 ± 0.15	5.499 ± 0.12
x1 = 0.105	831.623 ± 0.24	828.108 ± 0.24	824.6 ± 0.24	1359 ± 1.6	1342.1 ± 1.6	–	–
x1 = 0.167	835.443 ± 0.24	831.899 ± 0.24	828.337 ± 0.24	1355.4 ± 1.6	1338.4 ± 1.6	6.076 ± 0.13	5.128 ± 0.11
x1 = 0.2004	837.529 ± 0.24	833.978 ± 0.24	830.387 ± 0.24	1353.2 ± 1.6	1336.4 ± 1.6	5.882 ± 0.13	4.946 ± 0.11
x1 = 0.2561	841.092 ± 0.24	837.535 ± 0.24	833.89 ± 0.24	1350.3 ± 1.6	1333.4 ± 1.6	5.471 ± 0.12	4.656 ± 0.1
x1 = 0.3039	844.242 ± 0.24	840.656 ± 0.24	836.962 ± 0.24	1347.8 ± 1.6	1330.9 ± 1.6	5.254 ± 0.12	4.44 ± 0.098
x1 = 0.4046	851.133 ± 0.24	847.482 ± 0.24	843.721 ± 0.24	1342.7 ± 1.6	1325.9 ± 1.6	4.678 ± 0.1	4.001 ± 0.088
x1 = 0.5013	858.109 ± 0.24	854.363 ± 0.24	–	1338.2 ± 1.6	1321.3 ± 1.6	4.286 ± 0.094	3.647 ± 0.08
x1 = 0.6004	865.629 ± 0.24	861.773 ± 0.24	–	1334 ± 1.6	1316.9 ± 1.5	3.885 ± 0.086	3.31 ± 0.073
x1 = 0.7009	873.666 ± 0.24	869.705 ± 0.24	–	1330.3 ± 1.6	1313.2 ± 1.5	3.588 ± 0.079	3.045 ± 0.067
x1 = 0.8027	882.262 ± 0.24	878.21 ± 0.24	–	1327 ± 1.6	1310 ± 1.5	3.287 ± 0.072	2.825 ± 0.062
x1 = 0.852	886.596 ± 0.24	882.514 ± 0.24	–	1325.6 ± 1.6	1308.5 ± 1.5	3.165 ± 0.069	2.734 ± 0.06
x1 = 0.9007	891.001 ± 0.24	886.89 ± 0.24	–	1324.4 ± 1.6	1307.5 ± 1.5	3.04 ± 0.066	2.661 ± 0.058
x1 = 0.9512	895.736 ± 0.24	891.594 ± 0.24	–	1323.4 ± 1.6	1306.5 ± 1.5	2.901 ± 0.062	2.636 ± 0.057
